From patent US20100137398A1, “USE OF HDAC INHIBITORS FOR THE TREATMENT OF GASTROINTESTINAL CANCERS” (NOVARTIS AG, priority 2007, published 2010)

Key:
[1] = system: AsPC1 pancreatic cancer cell line; test: Cell proliferation assay, pancreatic cancer cell lines; format: cell-based
From the text: (§1) The MTT is a colorimetric assay to determine the cell proliferation rate. The yellow tetrazolium MTT (3-(4, 5-dimethylthiazolyl-2)-2, 5-diphenyltetrazolium bromide) is reduced, by metabolically active cells, in part by the action of dehydrogenase enzymes, to generate reducing equivalents such as NADH and NADPH. The resulting intracellular purple formazan can be solubilized and quantified by spectrophotometric means. The signals produced is directly proportional to the cell numbers. Describing the MTT assay in detail, experiments were done using six-point or 9 point drug titrations in multi-well tissue culture dishes, with outer rows left empty. Cells were suspended in complete media at densities of between 10^3 and 10^4 cell/ml, respectively, and added per well. The appropriate medium (200 μl) was then added. Twenty-four hours later, 10 μl of MTS solution, were added to one plates to determine the activity at the time of compound addition (T0). This plate was incubated at 37° for 4 hours and the optical density was measured on a Molecular Devices Thermomax at 490 nm using the Softmax program. The T0 plate served as a reference for initial activity at the beginning of the experiment.
(§2) Compound addition began 24 hours after seeding, the same time as the T0 determination. Serial dilutions at 4-fold 2-fold, 1-fold, 0.5-fold, 0.25-fold and 0.125-fold of previously determined IC50 values of each compound were made in a 96-deep well plate with the highest concentrations on the edge of the plate. Each of the six dilutions were added in triplicate and complete medium was added to the empty outer rows, without cells. The compounds were added to the plates singly or in combination with Compound III (LBH589). The plates were incubated at 37° C. for 72 hours from seeding. The MTS solution was added (as for the T0 plate) and read four hours later. In order to analyze the data, the average value of media alone (background) was subtracted from each experimental well and the triplicate values were averaged for each compound dilution. The following formulas were used to calculate percent growth.
(§3) If X>T0, % Growth=100×(X−T0)/(GC−T0))
(§4) If X<T0, % Growth=100×(X−T0)/T0)
(§5) T0=average value of T0 minus background
(§6) GC=average value of untreated cells (in triplicate) minus background X=average value, of compound treated cells (in triplicate) minus background
(§7) IC50 the concentration of LBH589 required to inhibit cell growth by 50% and LD50s the concentration required to reduce cell number (kill cells) to 50% the original innoculum were determined. The “% Growth” was plotted against compound concentration and used to calculate IC50s and LD50s, employing the user-defined spline function in Microsoft Excel.
(§8) Pancreatic cancer cell lines were treated with DMSO vehicle control or varying concentrations of LBH589 for 3 days. Cell proliferation was measured on the day of cell plating and on the third day post-treatment. IC50 and LD50 values were calculated as described above.

[2] = system: BxPC3 pancreatic cancer cell line; test: as above; format: cell-based
From the text: as §1, §2, §3, §4, §5, §6, §7, §8

[3] = system: Capan1 pancreatic cancer cell line; test: as above; format: cell-based
From the text: as §1, §2, §3, §4, §5, §6, §7, §8

[4] = system: HPAC pancreatic cancer cell line; test: as above; format: cell-based
From the text: as §1, §2, §3, §4, §5, §6, §7, §8

[5] = system: Hs766T pancreatic cancer cell line; test: as above; format: cell-based
From the text: as §1, §2, §3, §4, §5, §6, §7, §8

[6] = system: MiaPaCa2 pancreatic cancer cell line; test: as above; format: cell-based
From the text: as §1, §2, §3, §4, §5, §6, §7, §8

[7] = system: Panc1 pancreatic cancer cell line; test: as above; format: cell-based
From the text: as §1, §2, §3, §4, §5, §6, §7, §8

[8] = system: Panc10.05 pancreatic cancer cell line; test: as above; format: cell-based
From the text: as §1, §2, §3, §4, §5, §6, §7, §8

[9] = system: Panc2.03 pancreatic cancer cell line; test: as above; format: cell-based
From the text: as §1, §2, §3, §4, §5, §6, §7, §8

[10] = system: Panc3.27 pancreatic cancer cell line; test: as above; format: cell-based
From the text: as §1, §2, §3, §4, §5, §6, §7, §8

[11] = system: Panc4.03 pancreatic cancer cell line; test: as above; format: cell-based
From the text: as §1, §2, §3, §4, §5, §6, §7, §8

[12] = system: SU.86.86 pancreatic cancer cell line; test: as above; format: cell-based
From the text: as §1, §2, §3, §4, §5, §6, §7, §8

[13] = system: Colo205 colon cancer xenograft; test: Colo205 colon cancer xenograft model, tumor growth inhibition and delay; format: in vivo, Female athymic nude mice; conditions: LBH589 30 mg/kg iv Mon/Wed/Fri for 3 weeks, 5-FU 75 mg/kg ip once a week for 3 weeks, or both
Protocol: Female athymic nude mice-were implanted subcutaneously with Col6205 colon cancer cells. When tumors reached a medan tumor volume of 220 mm3, mice were randomized into groups of 10 mice. Mice were treated with LBH589 at 30 mg/kg intravenously on Monday, Wednesday, Friday per week for 3 weeks, 75 mg/kg of 5-Fluorouracil intraperitoneally once a week for 3 weeks, or combination of the two agents. For tumor growth inhibition (FIG. 2A), compound activity was measured as the percent change in tumor volume of treated animals over control animals (% T/C). The percentage of regression was determined as the percent change in the final tumor volume at the end of the study over the starting tumor volume. For tumor growth delay (FIG. 2B), compound activity was measured as the change in median calculated time to the study end point (TTE), which was predefined as tumor volume of 1000 mm^3.

[14] = system: 19 pancreatic cancer cell lines; test: Cell proliferation assays, panel of 19 pancreatic cancer cell lines, 6 days; format: cell-based; conditions: 6 days treatment
Protocol: A panel of 19 pancreatic cancer cell lines was independently assessed in cell proliferation assays. Cells were treated with DMSO vehicle control or varying concentrations of LBH589 for 6 days.

[15] = 3 days, concentration reducing cell number to 50% of original inoculum

SMILES: Cc1[nH]c2ccccc2c1CCNCc1ccc(/C=C/C(=O)NO)cc1 [LBH589, N-hydroxy-3-[4-[[[2-(2-methyl-1H-indol-3-yl)ethyl]-amino]methyl]phenyl]-2E-2-propenamide]
- LD50 ([1]; AsPC1, 3 days, concentration reducing cell number to 50% of original inoculum): 372.4 nM
- IC50 ([1]; Homo sapiens, 72 h, AsPC1, 3 days treatment): 25.1 nM
- LD50 ([2]; BxPC3, 3 days, concentration reducing cell number to 50% of original inoculum): 104.8 nM
- IC50 ([2]; Homo sapiens, BXPC-3, 72 h, BxPC3, 3 days treatment): 15.9 nM
- LD50 ([3]; Capan1, 3 days, concentration reducing cell number to 50% of original inoculum): 191.5 nM
- IC50 ([3]; Homo sapiens, CAPAN-1, 72 h, Capan1, 3 days treatment): 55.6 nM
- LD50 [4, 15]: 2051.6 nM
- IC50 ([4]; Homo sapiens, 72 h, 3 days treatment): 123 nM
- IC50 ([5]; 72 h, 3 days treatment): 14.1 nM
- LD50 [5, 15]: 119.9 nM
- IC50 ([6]; Homo sapiens, MIA PaCa-2, 72 h, MiaPaCa2, 3 days treatment): 14.1 nM
- LD50 ([6]; MiaPaCa2, 3 days, concentration reducing cell number to 50% of original inoculum): 59.5 nM
- IC50 ([7]; Homo sapiens, PANC-1, 72 h, Panc1, 3 days treatment): 18.9 nM
- LD50 ([7]; Panc1, 3 days, concentration reducing cell number to 50% of original inoculum): 175.4 nM
- IC50 ([8]; Homo sapiens, Panc1005, 72 h, Panc10.05, 3 days treatment): 31.8 nM
- LD50 ([8]; Panc10.05, 3 days, concentration reducing cell number to 50% of original inoculum): 282.4 nM
- IC50 ([9]; Homo sapiens, Panc203, 72 h, Panc2.03, 3 days treatment): 22.4 nM
- LD50 ([9]; Panc2.03, 3 days, concentration reducing cell number to 50% of original inoculum): 599.5 nM
- LD50 ([10]; Panc3.27, 3 days, concentration reducing cell number to 50% of original inoculum): 276.8 nM
- IC50 ([10]; Pancreatic cancer cell, 72 h, Panc3.27, 3 days treatment): 38.5 nM
- LD50 ([11]; Panc4.03, 3 days, concentration reducing cell number to 50% of original inoculum): >10 µM
- IC50 ([11]; Pancreatic cancer cell, 72 h, Panc4.03, 3 days treatment): 20.3 nM
- IC50 ([12]; Homo sapiens, 72 h, SU.86.86, 3 days treatment): 51 nM
- LD50 ([12]; SU.86.86, 3 days, concentration reducing cell number to 50% of original inoculum): 170.4 nM
- tumor growth inhibition (TGI) and tumor growth delay (TGD) [13]: led to tumor growth inhibition (TGI) and tumor growth delay (TGD)
- Median TTE (time to study end point, tumor volume of 1000 mm^3) ([13]; vehicle 39.5 days): 32.9 days
- LD50 ([14]; 18 of the 19 pancreatic cancer cell lines): < 1 µM
- IC50 values ([14]; all 19 pancreatic cancer cell lines): low nanomolar
